Measured values published in article PMC7125863 (Bioorganic & Medicinal Chemistry, 2013).

Legend:
[1] = system: human cytomegalovirus (HCMV) strain AD-169; assay: Anti-HCMV assay, strain AD169; type: cell-based; conditions: in parentheses
in vitro = conditions: human
[2] = system: human cytomegalovirus (HCMV) strain Davis; assay: Anti-HCMV assay, strain Davis; type: cell-based; conditions: in parentheses
HIV-1 RT K103N/Y181C = HIV-1 RT K103N/Y181C (Human immunodeficiency virus type 1 group M subtype B, UniProt P04585, K690N/Y768C); assay: biochemical
[3] = molecular target: wild-type HIV-1 reverse transcriptase (Human immunodeficiency virus type 1 group M subtype B, UniProt P04585); assay: RT enzyme assay, wild-type RT; type: biochemical
HIV-1 RT K103N = HIV-1 RT K103N (Human immunodeficiency virus type 1 group M subtype B, UniProt P04585, K690N); assay: biochemical
HIV-1 (IIIB) wild type = assay: Anti-HIV assay in MT-4 cell cultures; conditions: MT-4 cells

Structure (SMILES)	SI [1]	CC50 (in vitro) [µM]	SI [2]	other results
Nc1nc2c(ncn2COC(CO)CO)c(=O)[nH]1 [Ganciclovir, reference compound]	21	132	23	
O=c1ccn(C/C=C/c2ccccc2)c(=O)n1Cc1cc(Cl)cc(Cl)c1 [Compound 32, 1-Cinnamyl-3-(3,5-dichlorobenzyl)uracil]	11	≥ 100	9	Ki (HIV-1 RT K103N/Y181C): > 100 µM
Cc1cccc(OCCn2ccc(=O)n(Cc3ccccc3)c2=O)c1 [Compound 6, 3-Benzyl-1-[2-(3-methylphenoxy)ethyl]uracil]				Ki [3]: > 100 µM
Cc1ccc(OCCn2ccc(=O)n(Cc3c(C)cc(C)cc3C)c2=O)cc1 [Compound 20, 1-[2-(4-Methylphenoxy)ethyl]-3-(2,4,6-trimethylbenzyl)-uracil]				Ki [3]: > 100 µM
Cc1cc(Br)cc(Cn2c(=O)ccn(C/C=C/c3ccccc3)c2=O)c1 [Compound 34, 3-(3-Bromo-5-methylbenzyl)-1-cinnamyluracil]	6	≥ 100	5	
O=c1ccn(C/C=C/c2ccccc2)c(=O)n1Cc1cc(F)cc(F)c1 [Compound 31, 1-Cinnamyl-3-(3,5-difluorobenzyl)uracil]	1.38	51	1.13	
Cc1ccc(OCCn2ccc(=O)n(Cc3cc(C)cc(C)c3)c2=O)cc1 [Compound 19, 1-[2-(4-Methylphenoxy)ethyl]-3-(3,5-dimethylbenzyl)uracil]				Ki (HIV-1 RT K103N/Y181C): > 26 µM; Ki (HIV-1 RT K103N): > 26 µM
Cc1ccc(OCCn2ccc(=O)n(Cc3ccccc3C)c2=O)cc1 [Compound 15, 3-(2-Methylbenzyl)-1-[2-(4-methylphenoxy)ethyl]uracil]				Ki [3]: > 100 µM
O=c1ccn(C/C=C/c2ccccc2)c(=O)n1Cc1cc(Br)cc(Br)c1 [Compound 33, 1-Cinnamyl-3-(3,5-dibromobenzyl)uracil]				Ki (HIV-1 RT K103N/Y181C): > 100 µM
Cc1cc(C)cc(Cn2c(=O)ccn(C/C=C/c3ccccc3)c2=O)c1 [Compound 30, 1-Cinnamyl-3-(3,5-dimethylbenzyl)uracil]				Ki (HIV-1 RT K103N/Y181C): > 100 µM
O=c1ccn(C/C=C/c2ccccc2)c(=O)n1Cc1cccc2ccccc12 [Compound 35, 1-Cinnamyl-3-(1-naphthylmethyl)uracil]	7	≥ 100	16	
Cc1ccccc1OCCn1ccc(=O)n(Cc2ccccc2)c1=O [Compound 5, 3-Benzyl-1-[2-(2-methylphenoxy)ethyl]uracil]				Ki [3]: > 100 µM
Cc1ccc(OCCn2ccc(=O)n(Cc3cccc(C)c3)c2=O)cc1 [Compound 16, 3-(3-Methylbenzyl)-1-[2-(4-methylphenoxy)ethyl]uracil]				SI, selectivity index, ratio CC50/IC50 (HIV-1 (IIIB) wild type): ⩾11
Nc1ccn(C[C@@H](CO)OCP(=O)(O)O)c(=O)n1.O.O [Cidofovir, reference compound]	64	63	63	
